Test system: Hepatotoxicity
Assay: FDA HLAED, liver enzyme composite activity
Conditions: human
Throughout, for GGT Increase - Index Value: reference of the scale not given here.
Throughout, for LDH Increase - Index Value: reference of the scale not given here.

SMILES	Composite Activity - Active	Composite Activity - Marginal	Composite Activity - Score
CO/N=C(\C(=O)N[C@@H]1C(=O)N2C(C(=O)O)=C(COC(N)=O)CS[C@H]12)c1ccco1 [CEFUROXIME]	0	0	Inactive
CC(=O)OCC1=C(C(=O)O)N2C(=O)[C@@H](NC(=O)CSc3ccncc3)[C@H]2SC1 [CEPHAPIRIN]	0	0	Inactive
C[C@H](CCC(=O)O)[C@H]1CC[C@H]2[C@@H]3[C@H](O)C[C@@H]4C[C@H](O)CC[C@]4(C)[C@H]3CC[C@]12C [CHENODIOL]	0	0	Inactive
Cc1cc(C2CCCCC2)n(O)c(=O)c1 [CICLOPIROX]	0	0	Inactive
Nc1ccn(C[C@@H](CO)OCP(=O)(O)O)c(=O)n1.O.O [CIDOFOVIR]	1	0	Inactive
CCn1nc(C(=O)O)c(=O)c2cc3c(cc21)OCO3 [CINOXACIN]	2	0	Active
COc1cc(N)c(Cl)cc1C(=O)NC1CCN(CCCOc2ccc(F)cc2)CC1OC (configuration not stated) [CISAPRIDE]	0	0	Inactive

Same assay, conditions: human, Liver

SMILES	Composite Activity - Active	Composite Activity - Marginal	Composite Activity - Score
O=C(O)COCCN1CCN(C(c2ccccc2)c2ccc(Cl)cc2)CC1 (configuration not stated) [CETIRIZINE]	0	0	Inactive
O=C(O)c1cn(C2CC2)c2cc(N3CCNCC3)c(F)cc2c1=O [CIPROFLOXACIN]	0	1	Inactive

Test system: Hepatotoxicity
Assay: FDA HLAED, alkaline phosphatase increase
Conditions: human

SMILES	Alkaline Phosphatase Increase - Activity Score	Alkaline Phosphatase Increase - Index Value	Alkaline Phosphatase Increase - Number of Reports
CO/N=C(\C(=O)N[C@@H]1C(=O)N2C(C(=O)O)=C(COC(N)=O)CS[C@H]12)c1ccco1 [CEFUROXIME]	Inactive	0	< 4
CC(=O)OCC1=C(C(=O)O)N2C(=O)[C@@H](NC(=O)CSc3ccncc3)[C@H]2SC1 [CEPHAPIRIN]	Inactive	0	< 4
O=C(O)COCCN1CCN(C(c2ccccc2)c2ccc(Cl)cc2)CC1 (configuration not stated) [CETIRIZINE]	Inactive	0	< 4
C[C@H](CCC(=O)O)[C@H]1CC[C@H]2[C@@H]3[C@H](O)C[C@@H]4C[C@H](O)CC[C@]4(C)[C@H]3CC[C@]12C [CHENODIOL]	Inactive	0	< 4
Cc1cc(C2CCCCC2)n(O)c(=O)c1 [CICLOPIROX]	Inactive	0	< 4
Nc1ccn(C[C@@H](CO)OCP(=O)(O)O)c(=O)n1.O.O [CIDOFOVIR]	Active	92.2	< 4
CCn1nc(C(=O)O)c(=O)c2cc3c(cc21)OCO3 [CINOXACIN]	Inactive	0	< 4
O=C(O)c1cn(C2CC2)c2cc(N3CCNCC3)c(F)cc2c1=O [CIPROFLOXACIN]	Inactive	2.3	>= 4
COc1cc(N)c(Cl)cc1C(=O)NC1CCN(CCCOc2ccc(F)cc2)CC1OC (configuration not stated) [CISAPRIDE]	Inactive	0.2	>= 4

Test system: Hepatotoxicity
Assay: FDA HLAED, serum glutamic oxaloacetic transaminase (SGOT) increase
Conditions: human

SMILES	SGOT Increase - Activity Score	SGOT Increase - Index Value	SGOT Increase - Number of Reports
CO/N=C(\C(=O)N[C@@H]1C(=O)N2C(C(=O)O)=C(COC(N)=O)CS[C@H]12)c1ccco1 [CEFUROXIME]	Inactive	0.2	< 4
CC(=O)OCC1=C(C(=O)O)N2C(=O)[C@@H](NC(=O)CSc3ccncc3)[C@H]2SC1 [CEPHAPIRIN]	Inactive	0	< 4
O=C(O)COCCN1CCN(C(c2ccccc2)c2ccc(Cl)cc2)CC1 (configuration not stated) [CETIRIZINE]	Inactive	1	< 4
C[C@H](CCC(=O)O)[C@H]1CC[C@H]2[C@@H]3[C@H](O)C[C@@H]4C[C@H](O)CC[C@]4(C)[C@H]3CC[C@]12C [CHENODIOL]	Inactive	0	< 4
Cc1cc(C2CCCCC2)n(O)c(=O)c1 [CICLOPIROX]	Inactive	0	< 4
Nc1ccn(C[C@@H](CO)OCP(=O)(O)O)c(=O)n1.O.O [CIDOFOVIR]	Inactive	46.1	< 4
CCn1nc(C(=O)O)c(=O)c2cc3c(cc21)OCO3 [CINOXACIN]	Active	16.9	>= 4
O=C(O)c1cn(C2CC2)c2cc(N3CCNCC3)c(F)cc2c1=O [CIPROFLOXACIN]	Marginally Active	3.1	>= 4
COc1cc(N)c(Cl)cc1C(=O)NC1CCN(CCCOc2ccc(F)cc2)CC1OC (configuration not stated) [CISAPRIDE]	Inactive	0.3	>= 4

Test system: Hepatotoxicity
Assay: FDA HLAED, serum glutamic pyruvic transaminase (SGPT) increase
Conditions: human

SMILES	SGPT Increase - Activity Score	SGPT Increase - Index Value	SGPT Increase - Number of Reports
CO/N=C(\C(=O)N[C@@H]1C(=O)N2C(C(=O)O)=C(COC(N)=O)CS[C@H]12)c1ccco1 [CEFUROXIME]	Inactive	0	< 4
CC(=O)OCC1=C(C(=O)O)N2C(=O)[C@@H](NC(=O)CSc3ccncc3)[C@H]2SC1 [CEPHAPIRIN]	Inactive	0	< 4
O=C(O)COCCN1CCN(C(c2ccccc2)c2ccc(Cl)cc2)CC1 (configuration not stated) [CETIRIZINE]	Inactive	1.3	>= 4
C[C@H](CCC(=O)O)[C@H]1CC[C@H]2[C@@H]3[C@H](O)C[C@@H]4C[C@H](O)CC[C@]4(C)[C@H]3CC[C@]12C [CHENODIOL]	Inactive	0	< 4
Cc1cc(C2CCCCC2)n(O)c(=O)c1 [CICLOPIROX]	Inactive	0	< 4
Nc1ccn(C[C@@H](CO)OCP(=O)(O)O)c(=O)n1.O.O [CIDOFOVIR]	Inactive	0	< 4
CCn1nc(C(=O)O)c(=O)c2cc3c(cc21)OCO3 [CINOXACIN]	Active	15.1	>= 4
O=C(O)c1cn(C2CC2)c2cc(N3CCNCC3)c(F)cc2c1=O [CIPROFLOXACIN]	Inactive	2.1	>= 4
COc1cc(N)c(Cl)cc1C(=O)NC1CCN(CCCOc2ccc(F)cc2)CC1OC (configuration not stated) [CISAPRIDE]	Inactive	0.4	>= 4

Test system: Hepatotoxicity
Assay: FDA HLAED, lactate dehydrogenase (LDH) increase
Conditions: human

SMILES	LDH Increase - Activity Score	LDH Increase - Index Value	LDH Increase - Number of Reports
CO/N=C(\C(=O)N[C@@H]1C(=O)N2C(C(=O)O)=C(COC(N)=O)CS[C@H]12)c1ccco1 [CEFUROXIME]	Inactive	0	< 4
CC(=O)OCC1=C(C(=O)O)N2C(=O)[C@@H](NC(=O)CSc3ccncc3)[C@H]2SC1 [CEPHAPIRIN]	Inactive	0	< 4
O=C(O)COCCN1CCN(C(c2ccccc2)c2ccc(Cl)cc2)CC1 (configuration not stated) [CETIRIZINE]	Inactive	1	< 4
C[C@H](CCC(=O)O)[C@H]1CC[C@H]2[C@@H]3[C@H](O)C[C@@H]4C[C@H](O)CC[C@]4(C)[C@H]3CC[C@]12C [CHENODIOL]	Inactive	0	< 4
Cc1cc(C2CCCCC2)n(O)c(=O)c1 [CICLOPIROX]	Inactive	0	< 4
Nc1ccn(C[C@@H](CO)OCP(=O)(O)O)c(=O)n1.O.O [CIDOFOVIR]	Inactive	46.1	< 4
CCn1nc(C(=O)O)c(=O)c2cc3c(cc21)OCO3 [CINOXACIN]	Inactive	0	< 4
O=C(O)c1cn(C2CC2)c2cc(N3CCNCC3)c(F)cc2c1=O [CIPROFLOXACIN]	Inactive	0.9	>= 4
COc1cc(N)c(Cl)cc1C(=O)NC1CCN(CCCOc2ccc(F)cc2)CC1OC (configuration not stated) [CISAPRIDE]	Inactive	0.1	< 4

Test system: Hepatotoxicity
Assay: FDA HLAED, gamma-glutamyl transferase (GGT) increase
Conditions: human

SMILES	GGT Increase - Activity Score	GGT Increase - Index Value	GGT Increase - Number of Reports
CO/N=C(\C(=O)N[C@@H]1C(=O)N2C(C(=O)O)=C(COC(N)=O)CS[C@H]12)c1ccco1 [CEFUROXIME]	Inactive	0	< 4
CC(=O)OCC1=C(C(=O)O)N2C(=O)[C@@H](NC(=O)CSc3ccncc3)[C@H]2SC1 [CEPHAPIRIN]	Inactive	0	< 4
O=C(O)COCCN1CCN(C(c2ccccc2)c2ccc(Cl)cc2)CC1 (configuration not stated) [CETIRIZINE]	Inactive	0.6	< 4
C[C@H](CCC(=O)O)[C@H]1CC[C@H]2[C@@H]3[C@H](O)C[C@@H]4C[C@H](O)CC[C@]4(C)[C@H]3CC[C@]12C [CHENODIOL]	Inactive	0	< 4
Cc1cc(C2CCCCC2)n(O)c(=O)c1 [CICLOPIROX]	Inactive	0	< 4
Nc1ccn(C[C@@H](CO)OCP(=O)(O)O)c(=O)n1.O.O [CIDOFOVIR]	Inactive	0	< 4
CCn1nc(C(=O)O)c(=O)c2cc3c(cc21)OCO3 [CINOXACIN]	Inactive	0	< 4
O=C(O)c1cn(C2CC2)c2cc(N3CCNCC3)c(F)cc2c1=O [CIPROFLOXACIN]	Inactive	0.8	>= 4
COc1cc(N)c(Cl)cc1C(=O)NC1CCN(CCCOc2ccc(F)cc2)CC1OC (configuration not stated) [CISAPRIDE]	Inactive	0.2	< 4

From ChEMBL document CHEMBL1697781, “Assessment of the health effects of chemicals in humans: II. Construction of an adverse effects database for QSAR modeling” (Curr Drug Discov Technol, 2004)
